Where two headings read alike, the source gives them in different places.
Experiments:
[1] = system: HCT-116; assay: CellTiter-Glo proliferation and viability assay; conditions: Homo sapiens
[2] = system: NCI-H1993; assay: CellTiter-Glo proliferation and viability assay; format: cell-based; conditions: Homo sapiens
[3] = system: C3A; assay: CellTiter-Glo proliferation and viability assay; format: cell-based; conditions: Homo sapiens
[4] = Bioavailability; conditions: in vivo
[5] = system: NCI-H522; assay: CellTiter-Glo proliferation and viability assay; format: cell-based; conditions: Homo sapiens
[6] = system: NCI-H1573; assay: CellTiter-Glo proliferation and viability assay; format: cell-based; conditions: Homo sapiens
[7] = biological target: C-Raf (WT) (Homo sapiens, UniProt P04049); assay: biochemical
[8] = system: SiHa; assay: CellTiter-Glo proliferation and viability assay; format: cell-based; conditions: Homo sapiens
[9] = system: 22RV1; assay: CellTiter-Glo proliferation and viability assay; format: cell-based; conditions: Homo sapiens
[10] = system: NCI-H2009; assay: CellTiter-Glo proliferation and viability assay; format: cell-based; conditions: Homo sapiens
[11] = system: A2780; assay: CellTiter-Glo proliferation and viability assay; format: cell-based; conditions: Homo sapiens
[12] = system: NCI-H2170; assay: CellTiter-Glo proliferation and viability assay; format: cell-based; conditions: Homo sapiens
[13] = system: Sk-MeI-2 cells; assay: CellTiter-Blue SK-MeI-2 cell proliferation assay; format: cell-based; conditions: Homo sapiens; SK-Mel-2, CellTiter-Blue; read-out: Cell Proliferation Inhibition IC50
Procedure: Sk-MeI-2 cells (catalog #HTB-68) are obtained from the American Type Culture Collection (ATCC, Manassas, Va.). Briefly, cells are grown in MEM supplemented with 10% characterized fetal bovine serum (Invitrogen, Carlsbad, Calif.), 1 mM sodium pyruvate, 0.1 mM non-essential amino acids, and 1% Penicillin/Streptomycin/L-Glutamine at 37 degrees Celsius, 5% CO2, and 95% humidity. Cells are allowed to expand until reaching 70-95% confluency at which point they are subcultured or harvested for assay use. A serial dilution of test compound is dispensed into a 384-well black clear bottom plate in triplicate. One thousand two-hundred fifty cells are added per well in 50 μL complete growth medium in the 384-well plate. Plates are incubated for 67 hours at 37 degrees Celsius, 5% CO2, and 95% humidity. At the end of the incubation period, 10 μL of a 440 μM solution of resazurin (Sigma, St. Louis, Mo.) in PBS is added to each well of the plate and plates are incubated for an additional 5 hours at 37 degrees Celsius, 5% CO2, and 95% humidity. Plates are read on a Synergy2 reader (Biotek, Winooski, Vt.) using an excitation of 540 nm and an emission of 600 nm. Data is analyzed using Prism software (Graphpad, San Diego, Calif.) to calculate IC50 values.
The A375, HT-29, and Colo-205 cells (ATCC) harbor a V600E mutation.

[14] = system: GA-10-Clone-4; assay: CellTiter-Glo proliferation and viability assay; format: cell-based; conditions: Homo sapiens
[15] = system: MV-4-11; assay: CellTiter-Glo proliferation and viability assay; format: cell-based; conditions: Homo sapiens
[16] = system: LN 229; assay: CellTiter-Glo proliferation and viability assay; format: cell-based; conditions: Homo sapiens
[17] = system: A375 V600E xenograft; assay: A375 xenograft tumor model, efficacy; format: in vivo, rat; conditions: nude rats, oral twice a day 5, 10, 15, and 20 mg/kg for 21 days
Procedure: Briefly, 10×10^6 cells (A375) or 5×10^6 cells (HCT-116) in a 1:1 medium and matrigel mix (0.2 mL total volume) are implanted by subcutaneous injection in the hind leg of nude female rats (NIH model No. NIHRNU-M from Taconic). A total of 8 rats in each group are used for the efficacy study, and a total of 3-4 rats in each group are used for a pharmacodynamic study. The Eli Lilly and Company Animal Care and Use Committee approved all the experimental protocols. […] Tumor growth and body weight are monitored over time to evaluate activity and signs of toxicity. Bidimensional measurements of tumors are performed twice a week and tumor volumes are calculated based on mid-axis length and mid-axis width. Tumor volume data are transformed to a log scale to equalize variance across time and treatment groups. The log volume data are analyzed with a two-way repeated measures analysis of variance by time and treatment using the MIXED® procedures in SAS® software (version 8.2). The correlation model for the repeated measures is spatial power. Treated groups are compared to the control group at each time point. The MIXED® procedure is also used separately for each treatment group to calculate adjusted means and standard errors at each time point. […]

[18] = system: P30-OHK; assay: CellTiter-Glo proliferation and viability assay; format: cell-based; conditions: Homo sapiens, read-out: Abs IC50
[19] = system: Hs746T; assay: CellTiter-Glo proliferation and viability assay; format: cell-based; conditions: Homo sapiens
[20] = system: Hep3B2.1-7; assay: CellTiter-Glo proliferation and viability assay; format: cell-based; conditions: Homo sapiens
[21] = system: DU-145; assay: CellTiter-Glo proliferation and viability assay; format: cell-based; conditions: Homo sapiens
[22] = system: SK-HEP-1; assay: CellTiter-Glo proliferation and viability assay; format: cell-based; conditions: Homo sapiens, SK-HEP1, read-out: Abs IC50
[23] = system: Caki-1; assay: CellTiter-Glo proliferation and viability assay; format: cell-based; conditions: Homo sapiens
[24] = system: NCI-H2081; assay: CellTiter-Glo proliferation and viability assay; format: cell-based; conditions: Homo sapiens
[25] = system: NCI-H23; assay: CellTiter-Glo proliferation and viability assay; format: cell-based; conditions: Homo sapiens
[26] = system: Calu-6; assay: CellTiter-Glo proliferation and viability assay; format: cell-based; conditions: Homo sapiens

Chain of C-Raf (WT) (P04049 whole entry): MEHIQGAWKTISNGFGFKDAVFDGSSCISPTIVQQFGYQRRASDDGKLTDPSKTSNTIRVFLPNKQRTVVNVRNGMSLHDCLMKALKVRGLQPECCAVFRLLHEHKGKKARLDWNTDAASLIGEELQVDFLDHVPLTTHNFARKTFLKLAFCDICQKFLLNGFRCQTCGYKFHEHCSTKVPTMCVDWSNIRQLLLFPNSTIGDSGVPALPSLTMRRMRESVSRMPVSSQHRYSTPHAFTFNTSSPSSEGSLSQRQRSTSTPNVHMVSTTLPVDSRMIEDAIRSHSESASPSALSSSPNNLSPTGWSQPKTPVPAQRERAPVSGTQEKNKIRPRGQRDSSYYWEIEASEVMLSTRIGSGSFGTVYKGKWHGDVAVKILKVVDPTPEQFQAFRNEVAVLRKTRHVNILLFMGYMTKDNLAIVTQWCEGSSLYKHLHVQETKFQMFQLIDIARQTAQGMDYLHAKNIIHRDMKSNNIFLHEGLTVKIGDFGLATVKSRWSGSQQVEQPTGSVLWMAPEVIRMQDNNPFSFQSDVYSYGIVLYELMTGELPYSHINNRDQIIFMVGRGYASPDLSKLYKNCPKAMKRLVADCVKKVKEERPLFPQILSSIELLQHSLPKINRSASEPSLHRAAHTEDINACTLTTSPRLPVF

CNc1ncc2cc(-c3cc(NC(=O)NCCC(C)(C)C)c(F)cc3C)c(C)nc2n1 [Example 1, 1-(3,3-Dimethylbutyl)-3-(2-fluoro-4-methyl-5-(7-methyl-2-(methylamino)pyrido[2,3-d]pyrimidin-6-yl)phenyl)urea]
IC50 ([1]; HCT-116, read-out: Abs IC50): 0.72 nM
IC50 ([1]; HCT-116, read-out: proliferation and viability IC50): 178 nM
IC50 ([2]; read-out: Abs IC50): 0.17 nM
IC50 ([2]; read-out: Rel IC50): 0.09 nM
IC50 ([3]; read-out: Abs IC50): > 20 nM
IC50 ([3]; read-out: Rel IC50): 0.6 nM
bioavailability [4]: low
IC50 ([5]; read-out: Abs IC50): 4.5 nM
IC50 ([5]; read-out: Rel IC50): 0.22 nM
IC50 ([6]; read-out: Abs IC50): > 20 nM
IC50 ([6]; read-out: Rel IC50): 0.99 nM
inhibition at 0.001 µM [7]: -11%
inhibition at 0.01 µM [7]: 23.9%
inhibition at 0.1 µM [7]: 50.8%
inhibition at 1 µM [7]: 79.3%
IC50 ([8]; read-out: Abs IC50): > 20 nM
IC50 ([8]; read-out: Rel IC50): > 20 nM
IC50 ([9]; read-out: Abs IC50): 1.96 nM
IC50 ([9]; read-out: Rel IC50): 0.19 nM
IC50 ([10]; read-out: Abs IC50): 11.9 nM
IC50 ([10]; read-out: Rel IC50): 1.58 nM
IC50 ([11]; read-out: Abs IC50): 0.81 nM
IC50 ([11]; read-out: Rel IC50): 0.2 nM
IC50 ([12]; read-out: Abs IC50): 15.1 nM
IC50 ([12]; read-out: Rel IC50): 19.9 nM
IC50 [13]: 158 nM
IC50 ([14]; read-out: Abs IC50): 0.2 nM
IC50 ([14]; read-out: Rel IC50): 0.25 nM
IC50 ([15]; MV4-11, read-out: Abs IC50): 0.98 nM
IC50 ([15]; MV4-11, read-out: Rel IC50): 1.87 nM
IC50 ([16]; read-out: Abs IC50): 1.22 nM
IC50 ([16]; read-out: Rel IC50): 1.08 nM
animal body weight [17]: no animal body weight loss
tumor growth ([17]; all dose groups): tumor growth inhibition and tumor growth regression
IC50 [18]: 1.43 nM
IC50 ([19]; read-out: Abs IC50): 0.98 nM
IC50 ([19]; read-out: Rel IC50): 0.76 nM
IC50 ([20]; read-out: Abs IC50): 0.8 nM
IC50 ([20]; read-out: Rel IC50): 0.36 nM
IC50 ([21]; read-out: Abs IC50): 5.18 nM
IC50 ([21]; read-out: Rel IC50): 0.66 nM
IC50 [22]: 1.96 nM
IC50 ([23]; read-out: Abs IC50): 2.91 nM
IC50 ([23]; read-out: Rel IC50): 2.03 nM
IC50 ([24]; read-out: Abs IC50): > 20 nM
IC50 ([24]; read-out: Rel IC50): > 20 nM
IC50 ([25]; read-out: Abs IC50): 6.27 nM
IC50 ([25]; read-out: Rel IC50): 0.69 nM
IC50 ([26]; read-out: Abs IC50): 0.24 nM
IC50 ([26]; read-out: Rel IC50): 0.22 nM
